68 compounds from US10391095B2, “DNA-PK inhibitors” (Vertex Pharmaceuticals Incorporated, priority 2012, dated 2019) can be followed below.

The target of the assay is DNA-PK (Homo sapiens, UniProt P78527). Kind of assay: DNA-PK inhibition assay (radiometric, 33P-ATP). As to conditions: 100 μM ATP, competitive tight-binding fit. In kind it is biochemical. In short, it runs like this:
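33P transfer from 100 µM ATP to a DNA-PK peptide (0.8 mg/mL) is measured after 45 min, using about 6 nM enzyme activated by 10 µg/mL sheared dsDNA (HEPES pH 7.5, MgCl2, DTT). Filter-bound counts fitted to a competitive tight-binding inhibition model give Ki.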

The compound `CNC(=O)c1ccnc2c([C@H](C)CNc3cc(-c4cnc5c(cnn5CCO)c4)ncn3)cccc12` [Compound 580] yielded a Ki of under 30 nM. Take `CCNc1ccc(-c2cc(NC[C@@H](C)c3cccc4c(C(=O)NC)ccnc34)ncn2)cn1` [Compound 581]: the Ki is under 30 nM. `CNC(=O)c1ccnc2c([C@H](C)CNc3cc(-c4ccc5ncccc5c4)ncn3)cccc12` [Compound 582] gave an inhibition constant (Ki) of under 30 nM. As for `Cc1ccc(-c2cc(NC[C@@H](C)c3ccnc4c3OCC4(C)C)ncn2)cn1` [Compound 583], the Ki is under 30 nM.

With `CNCCNc1ccc(-c2cc(NC[C@@H](C)c3cccc4c(C(=O)NC)ccnc34)ncn2)cn1` [Compound 584], the Ki is under 30 nM.

Consider `CCNc1ncc(-c2cc(NC[C@@H](C)c3ccc(C(=O)NC)cc3OC)ncn2)cn1` [Compound 585], for which the Ki is under 30 nM.

In turn, `CNC(=O)c1ccnc2c([C@H](C)CNc3cc(-c4ccc(N)nc4)ncn3)cccc12` [Compound 586] displayed a Ki of under 30 nM. For the compound `CNC(=O)c1ccnc2c([C@H](C)CNc3cc(-c4ccc(S(C)(=O)=O)nc4)ncn3)cccc12` [Compound 587], the Ki is under 30 nM. Compound `COc1ncc(-c2cc(NC[C@@H](C)c3ccnc4c3OCC4)ncn2)cc1N` [Compound 589] yielded a Ki of under 30 nM. `CNC(=O)c1ccnc2c([C@H](C)CNc3cc(-c4ccc(C(C)=O)cc4)ncn3)cccc12` [Compound 590] had a Ki of under 30 nM. In turn, `C[C@H](CNc1cc(-c2cc(C(F)(F)F)c3ncccc3c2)ncn1)c1ccnc2c1OCC2` [Compound 591] registered a Ki of under 30 nM. Next, `CNC(=O)c1ccnc2c([C@H](C)CNc3cc(-c4cnc(OC)c(OC)c4)ncn3)cccc12` [Compound 592]: under 30 nM; `C[C@H](CNc1cc(-c2ccc(N)nc2)ncn1)c1ccnc2c1OCC2` [Compound 594]: under 30 nM; `COc1cc(-c2cc(NC[C@@H](C)c3ccnc4c3OCC4)ncn2)cnc1OC` [Compound 595]: under 30 nM. The compound `CC(=O)c1ccc(-c2cc(NC[C@@H](C)c3ccnc4c3OCC4)ncn2)cc1` [Compound 596] yielded a Ki of under 30 nM. Next, `C[C@H](CNc1cc(-c2cc(F)c3ncccc3c2)ncn1)c1ccnc2c1OCC2` [Compound 597]: under 30 nM. `CNC(=O)c1ccnc2c([C@H](C)CNc3cc(-c4ccc(F)nc4)ncn3)cccc12` [Compound 603]: the Ki is under 30 nM. On to `[2H]c1nc(NC[C@@H](C)c2cccc3c(C(=O)NC)ccnc23)cc(-c2ccc(C)nc2)n1` [Compound 604], for which the Ki was under 30 nM. On to `CNC(=O)c1ccnc2c([C@H](C)CNc3cc(-c4cncnc4)ncn3)cccc12` [Compound 605], for which the Ki was under 30 nM. `CNC(=O)c1ccnc2c([C@H](C)CNc3cc(-c4cnc(OC)nc4)ncn3)cccc12` [Compound 606] gave a Ki of under 30 nM.

`CCOc1ncc(-c2cc(NC[C@@H](C)c3cccc4c(C(=O)NC)ccnc34)ncn2)cn1` [Compound 607] registered a Ki of under 30 nM.

Turning to `CNC(=O)c1ccnc2c([C@H](C)CNc3cc(-c4cnc(N)nc4)ncn3)cccc12` [Compound 608], the Ki was under 30 nM. The compound `CNC(=O)c1ccnc2c([C@H](C)CNc3cc(-c4cccnc4)ncn3)cccc12` [Compound 612] gave a Ki of under 30 nM. Next, `CNC(=O)c1ccnc2c([C@H](C)CNc3cc(-c4ccc(C#N)nc4)ncn3)cccc12` [Compound 613]: under 30 nM; `CNC(=O)c1ccnc2c([C@H](C)CNc3cc(-c4ccc(N5CCN(C(C)=O)CC5)nc4)ncn3)cccc12` [Compound 614]: under 30 nM; `CNC(=O)c1ccnc2c([C@H](C)CNc3cc(-c4ccc(OC)nc4)ncn3)cccc12` [Compound 615]: under 30 nM. Next, `CNC(=O)c1ccnc2c([C@H](C)CNc3cc(-c4cnc(NC(C)C)nc4)ncn3)cccc12` [Compound 618]: under 30 nM.

`CNC(=O)c1ccnc2c([C@H](C)CNc3cc(-c4cnc5c(cnn5C(C)(C)C)c4)ncn3)cccc12` [Compound 619] returned a Ki of under 30 nM.

As to `CNC(=O)c1c(F)cnc2c([C@H](C)CNc3cc(-c4ccc(C)nc4)ncn3)cccc12` [Compound 620], the Ki is under 30 nM. As for `CNC(=O)c1ccnc2c([C@H](C)CNc3cc(-c4cnc(C)nc4)ncn3)ccc(F)c12` [Compound 622], the Ki was under 30 nM. `CNC(=O)c1ccnc2c([C@H](C)CNc3cc(-c4cnc(NC)nc4)ncn3)ccc(F)c12` [Compound 623] registered a Ki of under 30 nM. Under `CNC(=O)c1ccnc2c([C@H](C)CNc3cc(-c4ccc(C)nc4)ncn3)ccnc12` [Compound 624] stands under 30 nM. `CNC(=O)c1ccnc2c([C@H](C)CNc3cc(-c4ccc(N(C)CC5CC5)nc4)ncn3)cccc12` [Compound 625] displayed a Ki of under 30 nM. `CC(=O)N1CCOc2c([C@H](C)CNc3cc(-c4cnc(C)nc4)ncn3)cccc21` [Compound 627] displayed a Ki of under 30 nM.

Compound `CNC(=O)c1ccnc2c([C@H](C)CNc3cc(-c4ccc(NC5CC5)nc4)ncn3)cccc12` [Compound 628] showed a Ki of under 30 nM. Under `COc1cnc(N)cc1[C@H](C)CNc1cc(-c2ccc(C)nc2)ncn1` [Compound 630] stands under 30 nM; under `CNC(=O)CNc1ccc(-c2cc(NC[C@@H](C)c3cccc4c(C(=O)NC)ccnc34)ncn2)cn1` [Compound 632], under 30 nM.

With `CNC(=O)c1ccnc2c([C@H](C)CNc3cc(-c4ccc(NCC(=O)N(C)C)nc4)ncn3)cccc12` [Compound 633], the Ki is under 30 nM. `CNC(=O)c1ccnc2c([C@H](C)CNc3cc(-c4ccc(N(C)C5CCN(C)CC5)nc4)ncn3)cccc12` [Compound 634]: the Ki is under 30 nM. On to `CNC(=O)c1ccnc2c([C@H](C)CNc3cc(-c4ccc(NC5CCN(C)CC5)nc4)ncn3)cccc12` [Compound 635], for which the Ki is under 30 nM. In turn, `CNC(=O)c1c(F)cnc2c([C@H](C)CNc3cc(-c4cnc(C)nc4)ncn3)cccc12` [Compound 636] came in with a Ki of under 30 nM. Turning to `CNC(=O)c1ccnc2c([C@H](C)CNc3cc(-c4cnc(C)nc4)ncn3)cc(F)cc12` [Compound 637], the Ki was under 30 nM. Turning to `CNC(=O)c1ccnc2c([C@H](C)CNc3cc(-c4ccc(C)nc4)ncn3)cc(F)c(F)c12` [Compound 638], the Ki was under 30 nM.

`CNC(=O)c1ccnc2c([C@H](C)CNc3cc(-c4ccc(N5CCOCC5)nc4)ncn3)cccc12` [Compound 641]: the Ki is under 30 nM.

Turning to `COc1ccc(C(C)CNc2cc(-c3ccc(C)nc3)ncn2)c(N)n1` (centres unmarked) [Compound 642], the Ki is under 30 nM. `CNC(=O)c1ccnc2c([C@H](C)CNc3cc(-c4ccc(NCC5CC5)nc4)ncn3)cccc12` [Compound 644] registered a Ki of under 30 nM. Next, `CNC(=O)c1c(F)cnc2c([C@H](C)CNc3cc(-c4cnc(C)nc4)ncn3)ccc(F)c12` [Compound 645]: under 30 nM. For the compound `Cc1ccc(-c2cc(NCC(C)c3ccnc4c3OCCN4)ncn2)cn1` (centres unmarked) [Compound 648], the Ki is under 30 nM.

The compound `CNC(=O)c1ccnc2c([C@H](C)CNc3cc(-c4ccc(C(F)(F)F)nc4)ncn3)cccc12` [Compound 649] showed a Ki of under 30 nM. `CNC(=O)c1ccnc2c([C@H](C)CNc3cc(-c4cnc(N5CCOCC5)nc4)ncn3)cccc12` [Compound 650] returned a Ki of under 30 nM.

With `CNC(=O)c1ccnc2c([C@H](C)CNc3cc(-c4cncc(C)c4)ncn3)ccc(F)c12` [Compound 651], the Ki is under 30 nM. The compound `CCOc1ncc(-c2cc(NC[C@@H](C)c3ccc(F)c4c(C(=O)NC)ccnc34)ncn2)cn1` [Compound 652] showed a Ki of under 30 nM. Next, `[2H]C([2H])([2H])NC(=O)c1ccnc2c([C@H](C)CNc3cc(-c4cnc(C)nc4)ncn3)cccc12` [Compound 654]: under 30 nM; `CNC(=O)c1ccnc2c([C@H](C)CNc3cc(-c4ccc(=O)n(C)c4)ncn3)cccc12` [Compound 655]: under 30 nM.

Take `CNC(=O)c1ccnc2c([C@H](C)CNc3cc(-c4ccn(C)c(=O)c4)ncn3)cccc12` [Compound 656]: the Ki was under 30 nM. The compound `Cc1ncc(-c2cc(NC[C@@H](C)c3cccc4scnc34)ncn2)cn1` [Compound 658] gave a Ki of under 30 nM.

`Cc1ccc(-c2cc(NC[C@@H](C)c3ccnc4c3OCCN4)ncn2)cn1` [Compound 660] displayed a Ki of under 30 nM. Under `CNC(=O)c1ccnc2c([C@H](C)CNc3cc(-c4cnn(C)c4)ncn3)cccc12` [Compound 661] stands under 30 nM. In turn, `Cc1ncc(-c2cc(NC[C@@H](C)c3cccc4nccnc34)ncn2)cn1` [Compound 662] showed a Ki of under 30 nM. Compound `CNC(=O)c1ccnc2c([C@H](C)CNc3cc(-c4cnc(OC5COC5)nc4)ncn3)cccc12` [Compound 666] registered an inhibitory constant (Ki) of under 30 nM. Compound `Cc1ncc(-c2cc(NC[C@@H](C)c3cccc4cc(F)cnc34)ncn2)cn1` [Compound 667] showed a Ki of under 30 nM. Under `Cc1ncc(-c2cc(NC[C@@H](C)c3cccc4c(C(F)F)ccnc34)ncn2)cn1` [Compound 669] stands under 30 nM; under `CNC(=O)c1ccnc2c([C@H](C)CNc3cc(-c4ccc(CN5CCN(C)CC5)nc4)ncn3)cccc12` [Compound 670], under 30 nM; under `CNC(=O)c1ccnc2c([C@H](C)CNc3cc(-c4ccc(C)cc4)ncn3)cccc12` [Compound 671], under 30 nM. `CNC(=O)c1ccnc2c([C@H](C)CNc3cc(-c4ccc(C(=O)O)cc4)ncn3)cccc12` [Compound 672] came in with a Ki of under 30 nM. Next, `CNC(=O)c1ccnc2c([C@H](C)CNc3cc(-c4ccc(C(=O)O)nc4)ncn3)cccc12` [Compound 673]: under 30 nM; `CNC(=O)c1ccnc2c([C@H](C)CNc3cc(-c4ccc(S(C)(=O)=O)cc4)ncn3)cccc12` [Compound 675]: under 30 nM; `CCS(=O)(=O)c1ccc(-c2cc(NC[C@@H](C)c3cccc4c(C(=O)NC)ccnc34)ncn2)cc1` [Compound 676]: under 30 nM.

A word on the Ki: it is the dissociation constant of the complex between target and ligand, obtained from inhibition or displacement. A lower Ki goes with tighter binding.
